Laboratory results reported in US20230167073A1 (Teijin Pharma Limited, priority 2020, published 2023).

Each compound was assayed against T1, Human TRPC6 (Homo sapiens, UniProt Q9Y210) (assay: Evaluation of TRPC6 channel inhibitory activity (1), FLIPR Calcium 5 Assay Kit, OAG stimulation (Compound Nos. 1-1293)). Settings: Human TRPC6 stably-expressing cells, OAG 30 μM, FLIPR Calcium 5 Assay Kit; read-out: Inhibitory activity (pIC50 class) (converted).
T1 construct: expressed in transfected cells
T1 sequence (Q9Y210 1-931): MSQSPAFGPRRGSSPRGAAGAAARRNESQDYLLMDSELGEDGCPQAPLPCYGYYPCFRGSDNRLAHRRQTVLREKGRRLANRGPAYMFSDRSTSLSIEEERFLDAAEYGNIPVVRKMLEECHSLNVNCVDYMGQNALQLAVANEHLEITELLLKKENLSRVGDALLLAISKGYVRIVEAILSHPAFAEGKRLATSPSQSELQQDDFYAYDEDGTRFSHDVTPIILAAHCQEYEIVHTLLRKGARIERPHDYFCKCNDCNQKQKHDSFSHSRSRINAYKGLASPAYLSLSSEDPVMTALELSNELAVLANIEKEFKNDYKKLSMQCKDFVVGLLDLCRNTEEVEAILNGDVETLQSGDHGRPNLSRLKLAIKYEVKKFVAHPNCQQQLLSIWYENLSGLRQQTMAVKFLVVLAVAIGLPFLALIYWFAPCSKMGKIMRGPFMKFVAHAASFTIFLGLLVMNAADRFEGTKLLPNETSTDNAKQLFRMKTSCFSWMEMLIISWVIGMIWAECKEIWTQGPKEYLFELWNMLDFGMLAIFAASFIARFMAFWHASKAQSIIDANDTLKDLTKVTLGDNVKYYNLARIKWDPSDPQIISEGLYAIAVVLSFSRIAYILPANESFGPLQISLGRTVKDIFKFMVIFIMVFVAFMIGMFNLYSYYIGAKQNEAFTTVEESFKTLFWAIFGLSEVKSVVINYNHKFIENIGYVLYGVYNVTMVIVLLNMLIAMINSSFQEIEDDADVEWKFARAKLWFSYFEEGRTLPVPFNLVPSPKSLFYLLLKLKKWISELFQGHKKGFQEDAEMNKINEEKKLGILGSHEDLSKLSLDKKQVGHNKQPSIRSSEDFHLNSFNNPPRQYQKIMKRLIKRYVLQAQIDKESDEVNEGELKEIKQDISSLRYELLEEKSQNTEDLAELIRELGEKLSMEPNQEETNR
Type: cell-based
Summary of the method: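 TRPC6 (human) stable cells, 24 h culture; Ca5 no-wash dye + probenecid 30 min; cpd 20 min; OAG 30 μM final; ΔF (pre-cpd min to post-OAG max); 0%/100% = no cpd / no cpd + no OAG; 4PL → pIC50, binned +/++/+++.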

Row | SMILES | IC50 [µM]
1 | CC(C)n1nc(C2CC2)cc1Oc1cc(C#N)ccc1-c1ncc([C@H](O)CN)cn1 [compound 408, 4-[5-[(1S)-2-amino-1-hydroxyethyl]pyrimidin-2-yl]-3-(5-cyclopropyl-2-propan-2-ylpyrazol-3-yl)oxybenzonitrile] | 0.01 to 1
2 | COC(=O)C(N)c1ccc(-c2ccc(C#N)cc2Oc2cc(C)nc(N3CCOCC3)c2)nc1 (stereo not drawn) [compound 409, methyl 2-amino-2-[6-[4-cyano-2-(2-methyl-6-morpholin-4-ylpyridin-4-yl)oxyphenyl]pyridin-3-yl]acetate] | 0.01 to 1
3 | Cc1cc(Oc2cc(C#N)ccc2-c2ccc(C(N)C(=O)O)cn2)cc(N2CCOCC2)n1 (stereo not drawn) [compound 410, 2-amino-2-[6-[4-cyano-2-(2-methyl-6-morpholin-4-ylpyridin-4-yl)oxyphenyl]pyridin-3-yl]acetic acid] | 0.01 to 1
4 | N#Cc1ccc(-c2ncc([C@H](O)CN)cn2)c(Oc2cc(C3CC3)nn2CC(F)(F)F)c1 [compound 411, 4-[5-[(1S)-2-amino-1-hydroxyethyl]pyrimidin-2-yl]-3-[5-cyclopropyl-2-(2,2,2-trifluoroethyl)pyrazol-3-yl]oxybenzonitrile] | 0.01 to 1
5 | Cc1cc(Oc2cc(C#N)ccc2-c2ccc(C(N)CO)cn2)cc(N2CCOCC2)n1 (stereo not drawn) [compound 412, 4-[5-(1-amino-2-hydroxyethyl)pyridin-2-yl]-3-(2-methyl-6-morpholin-4-ylpyridin-4-yl)oxybenzonitrile] | 0.01 to 1
6 | Cn1nc(C(C)(C)C)cc1Oc1cc(C#N)ccc1-c1ccc(C(N)CO)cn1 (stereo not drawn) [compound 413, 4-[5-(1-amino-2-hydroxyethyl)pyridin-2-yl]-3-(5-tert-butyl-2-methylpyrazol-3-yl)oxybenzonitrile] | < 0.01
7 | Cn1nc(C2CC2)cc1Oc1cc(C#N)ccc1-c1ccc2c(N)noc2c1 [compound 414, 4-(3-amino-1,2-benzoxazol-6-yl)-3-(5-cyclopropyl-2-methylpyrazol-3-yl)oxybenzonitrile] | > 1
8 | Cn1nc(-c2ccccc2)cc1Oc1cc(C#N)ccc1-c1ccc2c(N)noc2c1 [compound 415, 4-(3-amino-1,2-benzoxazol-6-yl)-3-(2-methyl-5-phenylpyrazol-3-yl)oxybenzonitrile] | > 1
9 | Cn1nc(C2CC2)cc1Oc1cc(C#N)ccc1-c1ccc(N)cn1 [compound 416, 4-(5-aminopyridin-2-yl)-3-(5-cyclopropyl-2-methylpyrazol-3-yl)oxybenzonitrile] | > 1
10 | Cn1nc(C2CC2)cc1Oc1cc(C#N)ccc1-c1ncc(N)cn1 [compound 417, 4-(5-aminopyrimidin-2-yl)-3-(5-cyclopropyl-2-methylpyrazol-3-yl)oxybenzonitrile] | > 1
11 | Cc1cc(Oc2cc(C#N)ccc2-c2ccc(C(N)C(N)=O)cn2)cc(N2CCOCC2)n1 (stereo not drawn) [compound 418, 2-amino-2-[6-[4-cyano-2-(2-methyl-6-morpholin-4-ylpyridin-4-yl)oxyphenyl]pyridin-3-yl]acetamide] | 0.01 to 1
12 | Cc1cc(Oc2cc(C#N)ccc2-c2ncc(CCN3CCOCC3)cn2)cc(N2CCOCC2)n1 [compound 419, 3-(2-methyl-6-morpholin-4-ylpyridin-4-yl)oxy-4-[5-(2-morpholin-4-ylethyl)pyrimidin-2-yl]benzonitrile] | > 1
13 | Cn1nc(C2CC2)cc1Oc1cc(C#N)ccc1-c1ncc(C(N)CO)cn1 (stereo not drawn) [compound 420, 4-[5-(1-amino-2-hydroxyethyl)pyrimidin-2-yl]-3-(5-cyclopropyl-2-methylpyrazol-3-yl)oxybenzonitrile] | 0.01 to 1
14 | Cn1nc(C2CC2)cc1Oc1cc(C#N)ccc1-c1ccc(C(N)CO)cn1 (stereo not drawn) [compound 421, 4-[5-(1-amino-2-hydroxyethyl)pyridin-2-yl]-3-(5-cyclopropyl-2-methylpyrazol-3-yl)oxybenzonitrile] | 0.01 to 1
15 | Cn1nc(C2CC2)cc1Oc1cc(C#N)ccc1-c1ccc(C(N)C#N)cn1 (stereo not drawn) [compound 422, 4-[5-[amino(cyano)methyl]pyridin-2-yl]-3-(5-cyclopropyl-2-methylpyrazol-3-yl)oxybenzonitrile] | 0.01 to 1
16 | Cc1cc(Oc2cc(C#N)ccc2-c2ccc(C(N)C#N)cn2)cc(N2CCOCC2)n1 (stereo not drawn) [compound 423, 4-[5-[amino(cyano)methyl]pyridin-2-yl]-3-(2-methyl-6-morpholin-4-ylpyridin-4-yl)oxybenzonitrile] | 0.01 to 1
17 | Cn1nc(C2CC2)cc1Oc1cc(C#N)ccc1-c1ccc(CN2CCOCC2)cn1 [compound 424, 3-(5-cyclopropyl-2-methylpyrazol-3-yl)oxy-4-[5-(morpholin-4-ylmethyl)pyridin-2-yl]benzonitrile] | > 1
18 | Cc1cc(Oc2cc(C#N)ccc2-c2ccc(CN3CCOCC3)cn2)cc(N2CCOCC2)n1 [compound 425, 3-(2-methyl-6-morpholin-4-ylpyridin-4-yl)oxy-4-[5-(morpholin-4-ylmethyl)pyridin-2-yl]benzonitrile] | > 1
19 | Cn1nc(C2CC2)cc1Oc1cc(C#N)ccc1-c1ccc(C(N)C(=O)O)cn1 (stereo not drawn) [compound 426, 2-amino-2-[6-[4-cyano-2-(5-cyclopropyl-2-methylpyrazol-3-yl)oxyphenyl]pyridin-3-yl]acetic acid] | < 0.01
20 | Cn1nc(C2CC2)cc1Oc1cc(C#N)ccc1-c1ccc(C2CNCCO2)cn1 (stereo not drawn) [compound 427, 3-(5-cyclopropyl-2-methylpyrazol-3-yl)oxy-4-(5-morpholin-2-ylpyridin-2-yl)benzonitrile] | 0.01 to 1
21 | Cn1nc(-c2ccccc2)cc1Oc1cc(C#N)ccc1-c1ccc(C(N)C(=O)O)cn1 (stereo not drawn) [compound 428, 2-amino-2-[6-[4-cyano-2-(2-methyl-5-phenylpyrazol-3-yl)oxyphenyl]pyridin-3-yl]acetic acid] | 0.01 to 1
22 | Cc1cc(Oc2cc(C#N)ccc2-c2ccc([C@H](O)CN)cn2)cc(N2CCOCC2)n1 [compound 429, 4-[5-[(1S)-2-amino-1-hydroxyethyl]pyridin-2-yl]-3-(2-methyl-6-morpholin-4-ylpyridin-4-yl)oxybenzonitrile] | < 0.01
23 | Cc1cc(Oc2cc(C#N)ccc2-c2ncc([C@H](O)CN)cn2)cc(N2CCOCC2)n1 [compound 430, 4-[5-[(1S)-2-amino-1-hydroxyethyl]pyrimidin-2-yl]-3-(2-methyl-6-morpholin-4-ylpyridin-4-yl)oxybenzonitrile] | < 0.01
24 | Cn1nc(C2CC2)cc1Oc1cc(C#N)ccc1-c1cnc(NCCN)nc1 [compound 431, 4-[2-(2-aminoethylamino)pyrimidin-5-yl]-3-(5-cyclopropyl-2-methylpyrazol-3-yl)oxybenzonitrile] | 0.01 to 1
25 | Cn1nc(C2CC2)cc1Oc1cc(C#N)ccc1-c1ncc(NCCN)cn1 [compound 432, 4-[5-(2-aminoethylamino)pyrimidin-2-yl]-3-(5-cyclopropyl-2-methylpyrazol-3-yl)oxybenzonitrile] | < 0.01
26 | N#Cc1ccc(-c2ccc(C(N)C(=O)O)cn2)c(Oc2cnnc(-c3ccccc3)c2)c1 (stereo not drawn) [compound 433, 2-amino-2-[6-[4-cyano-2-(6-phenylpyridazin-4-yl)oxyphenyl]pyridin-3-yl]acetic acid] | 0.01 to 1
27 | Cc1nc(Oc2cc(C#N)ccc2-c2ncc(CCN)cn2)cc(N2CCOCC2)n1 [compound 434, 4-[5-(2-aminoethyl)pyrimidin-2-yl]-3-(2-methyl-6-morpholin-4-ylpyrimidin-4-yl)oxybenzonitrile] | < 0.01
